Literature values in patent publication US12377031B2, “Cosmetic compositions comprising 4-hydroxyacetophenone” (L'OREAL, priority 2020, dated 2025).

- heating temperature required to solubilize into aqueous systems: ≥ 60 °C
- solubility in water: limited solubility
SMILES: CC(=O)c1ccc(O)cc1 [4-hydroxyacetophenone, 4-Hydroxyacetophenone]
